In brackets after ≈: the same amount, converted by molar mass.
Key:
Type in all cases: functional
Pseudomonas aeruginosa = test: Antibacterial activity against Pseudomonas aeruginosa NR-117678.1 assessed as reduction in cell viability after 24 hrs by microdilution method
[1] = Antibacterial activity against Escherichia fergusonii CU928158.2 assessed as reduction in cell viability after 24 hrs by microdilution method
Bacillus licheniformis = test: Antibacterial activity against Bacillus licheniformis KX785171.1 assessed as reduction in cell viability after 24 hrs by microdilution method
Staphylococcus aureus = test: Antibacterial activity against Staphylococcus aureus CP011526.1 assessed as reduction in cell viability after 24 hrs by microdilution method
Enterobacter hormaechei = test: Antibacterial activity against Enterobacter xiangfangensis CP017183.1 assessed as reduction in cell viability after 24 hrs by microdilution method; settings: subsp. xiangfangensis CP017183.1

| Structure (SMILES) | MIC (Pseudomonas aeruginosa) [µg/mL] | MIC [1] [µg/mL] | MIC (Bacillus licheniformis) [µg/mL] | MIC (Staphylococcus aureus) [µg/mL] | MIC (Enterobacter hormaechei) [µg/mL] |
| --- | --- | --- | --- | --- | --- |
| COc1cc(O)c2c3c(c(C)cc(C(=O)O)c13)[C@H](OC)OC2=O | 4.7 (≈ 14.8 µM) | 11.2 (≈ 35.2 µM) | 3.8 (≈ 11.9 µM) | 6.3 (≈ 19.8 µM) | 7.8 (≈ 24.5 µM) |
| NCC[C@H](O)C(=O)N[C@@H]1C[C@H](N)[C@@H](O[C@H]2O[C@H](CN)[C@@H](O)[C@H](O)[C@H]2O)[C@H](O)[C@H]1O[C@H]1O[C@H](CO)[C@@H](O)[C@H](N)[C@H]1O [AMIKACIN] | 0.8 (≈ 1.37 µM) | 0.4 (≈ 0.683 µM) | 0.3 (≈ 0.512 µM) | 0.5 (≈ 0.854 µM) | 0.2 (≈ 0.342 µM) |
| O=c1cc(CO)occ1O [KOJIC ACID] | 2.9 (≈ 20.4 µM) | 3.5 (≈ 24.6 µM) | 14.8 (≈ 104 µM) | 9.5 (≈ 66.8 µM) | 1.6 (≈ 11.3 µM) |

Continued, values first:

| MIC (Pseudomonas aeruginosa) [µg/mL] | MIC [1] [µg/mL] | MIC (Bacillus licheniformis) [µg/mL] | MIC (Staphylococcus aureus) [µg/mL] | MIC (Enterobacter hormaechei) [µg/mL] | Structure (SMILES) |
| --- | --- | --- | --- | --- | --- |
| 18.4 (≈ 70.2 µM) | 13.2 (≈ 50.3 µM) | 21.6 (≈ 82.4 µM) | > 25 | 15.8 (≈ 60.2 µM) | COc1cc(O)cc(C2=COC(C(=O)O)=C[C@H]2C)c1 |
| 5.2 (≈ 17 µM) | 7.8 (≈ 25.5 µM) | 9.7 (≈ 31.7 µM) | 10.3 (≈ 33.6 µM) | 3.7 (≈ 12.1 µM) | COc1cc(O)c(C(=O)O)c(C2=COC(C(=O)O)=C[C@H]2C)c1 |
| 1.4 (≈ 4 µM) | 2.7 (≈ 7.71 µM) | 8.4 (≈ 24 µM) | 6.8 (≈ 19.4 µM) | 0.9 (≈ 2.57 µM) | COc1cc(O)c(C(=O)O)c(C2=COC(C(=O)O)=C[C@H]2C)c1C(=O)O |

— ChEMBL document CHEMBL4673348, “Penipyranicins A-C: Antibacterial Methylpyran Polyketides from a Hydrothermal Spring Sediment Penicillium sp” (2020)
